Test results from patent publication US20230165251A1, “SUBSTITUTED TOLYL FUNGICIDES AND THEIR MIXTURES” (FMC Corporation, priority 2020, published 2023).
Where two headings read alike, the source gives them in different places. One block for each molecule: values may come before it.

Assays:
Alternaria solani = assay: Test F: preventive spray on tomato seedlings, tomato early blight; assay type: in vivo
Text: (§1) General protocol for preparing test suspensions for Tests A-F: the test compounds were first dissolved in acetone in an amount equal to 3% of the final volume and then suspended at the desired concentration (in ppm) in acetone and purified water (50/50 mix by volume) containing 250 ppm of the surfactant PEG400 (polyhydric alcohol esters). The resulting test suspensions were then used in Tests A-F.
(§2) The test suspension was sprayed to the point of run-off on tomato seedlings. The following day the seedlings were inoculated with a spore suspension of Alternaria solani (the causal agent of tomato early blight) and incubated in a saturated atmosphere at 27° C. for 48 h, and then moved to a growth chamber at 20° C. for 3 days, after which time visual disease ratings were made.
(§3) A rating of 100 indicates 100% disease control and a rating of 0 indicates no disease control (relative to the controls). A dash (-) indicates the compound was not tested.

Phakopsora pachyrhizi [1] = assay: Test G: Compound 41 or 63 alone and in mixtures on soybean seedlings, Asian soybean rust, Colby synergy; assay type: in vivo; conditions: Phakopsora pachyrhizi, read-out: Test G Obsd; for pest or weed control at 0.403 ppm: Compound 63 0.403 ppm alone; for pest or weed control at 0.652 ppm: Compound 63 0.652 ppm alone
Text: The general protocol for preparing test compositions for TEST G was as follows: Compound 41, Compound 63, N-(2,2,2-trifluoroethyl)-2-[[4-[5-(trifluoromethyl)-1,2,4-oxadiazol-3-yl]phenyl]methyl]-4-oxazolecarboxamide (b54.11a), ethyl 1-[[4-[[(1Z)-2-ethoxy-3,3,3-trifluoro-1-propen-1-yl]oxy]phenyl]methyl]-1H-pyrazole-4-carboxylate (b54.11c), ethyl 1-[[4-[[2-(trifluoromethyl)-1,3-dioxolan-2-yl]methoxy]phenyl]methyl]-1H-pyrazole-4-carboxylate (b54.11d), azoxystrobin, benzovindiflupyr, bixafen, chlorothalonil, cyproconazole, epoxiconazole, fenpropidin, fenpropimorph, fluindapyr, flutriafol, fluxapyroxad, inpyrfluxam, picoxystrobin, prothioconazole, pydiflumetofen, tebuconazole and trifloxystrobin were obtained as unformulated, technical-grade materials. Copper hydroxide and mancozeb was obtained as a formulated product marketed under the trademarks KOCIDE 3000 and MANZATE, respectively. Unformulated materials were first dissolved in acetone and then suspended at the desired concentration (in ppm) in acetone and purified water (50/50 mix by volume) containing 250 ppm of the surfactant Trem® 014 (polyhydric alcohol esters). Formulated materials were dispersed in sufficient water to give the desired concentration, and neither organic solvent nor surfactant was added to the suspension. The resulting test mixtures were then used in TEST G. The tests were run on four individual plants and the results reported as the mean average of the four plants.
The presence of a synergistic effect between two active ingredients was established with the aid of the Colby equation (see Colby, S. R. “Calculating Synergistic and Antagonistic Responses of Herbicide Combinations”, Weeds, (1967), 15, 20-22):
Using the method of Colby, the presence of a synergistic interaction between two active ingredients is established by first calculating the predicted activity, p, of the mixture based on activities of the two components applied alone. If p is lower than the experimentally established effect, synergism has occurred. In the equation above, A is the fungicidal activity in percentage control of one component applied alone at rate x. The B term is the fungicidal activity in percentage control of the second component applied at rate y. The equation estimates p, the expected fungicidal activity of the mixture of A at rate x with B at rate y if their effects are strictly additive and no interaction has occurred.
(§4) The test mixture was sprayed to the point of run-off on soybean seedlings. The following day the seedlings were inoculated with a spore suspension of Phakopsora pachyrhizi (the causal agent of Asian soybean rust) and incubated in a saturated atmosphere at 22° C. for 24 h and then moved to a growth chamber at 22° C. for 8 days, after which time visual disease ratings were made.
Results for TEST G are given below in Tables B-1 through J-1 for Compound 41, and Tables B-2 through J-2 for Compound 63. Each table corresponds to a set of evaluations performed together at the same time. In each table, a rating of 100 indicates 100% disease control and a rating of 0 indicates no disease control (relative to the controls). Columns labeled “Obsd” indicate the average of results observed from test run on four individual plants. Columns labeled “Exp” indicate the expected value for each treatment mixture using the Colby equation.

[2] = system: Puccinia recondita f. sp. tritici; assay: Test B: preventive spray on wheat seedlings, wheat leaf rust; assay type: in vivo; conditions: for pest or weed control at 10 ppm: Puccinia recondita, 192 h, Rate 10 ppm, read-out: Test B disease control rating
Text: as §1
The test solution was sprayed to the point of run-off on wheat seedlings. The following day the seedlings were inoculated with a spore suspension of Puccinia recondita f. sp. tritici (the causal agent of wheat leaf rust) and incubated in a saturated atmosphere at 20° C. for 24 h, and then moved to a growth chamber at 20° C. for 7 days, after which time disease ratings were made.
as §3

Phakopsora pachyrhizi [3] = assay: Test D: preventive spray on soybean seedlings, Asian soybean rust; assay type: in vivo; conditions: for pest or weed control at 10 ppm: Phakopsora pachyrhizi, 216 h, Rate 10 ppm, read-out: Test D disease control rating
Text: as §1
as §4, with “solution” for “mixture”
as §3

Zymoseptoria tritici = assay: Test A: preventive spray on wheat seedlings, wheat leaf blotch; assay type: in vivo; conditions: Rate 250 ppm
Text: as §1
The test solution was sprayed to the point of run-off on wheat seedlings. The following day the seedlings were inoculated with a spore suspension of Zymoseptoria tritici (the causal agent of wheat leaf blotch) and incubated in a saturated atmosphere at 24° C. for 48 h, and then moved to a growth chamber at 20° C. for 17 days, after which time disease ratings were made.
as §3

[4] = system: Blumeria graminis f. sp. tritici; assay: Test C: preventive spray on wheat seedlings, wheat powdery mildew; assay type: in vivo; conditions: Rate 250 ppm
Text: as §1
The test suspension was sprayed to the point of run-off on wheat seedlings. The following day the seedlings were inoculated with a spore dust of Blumeria graminis f. sp. tritici, (also known as Erysiphe graminis f. sp. tritici, the causal agent of wheat powdery mildew) and incubated in a growth chamber at 20° C. for 8 days, after which time visual disease ratings were made.
as §3

Botrytis cinerea = assay: Test E: preventive spray on tomato seedlings, tomato Botrytis; assay type: in vivo; conditions: Rate 250 ppm
Text: as §1
as §2, with “Botrytis cinerea” for “Alternaria solani”, “Botrytis)” for “early blight)”, “20°” for “27°”, “24°” for “20°”
as §3

Compound: COC(=O)NCc1cc(-c2ccn(-c3c(F)cc(Cl)cc3F)n2)ccc1C [Compound 6, methyl N-[[5-[1-(4-chloro-2,6-difluorophenyl)-1H-pyrazol-3-yl]-2-methylphenyl]methyl]carbamate]
Test F disease control rating (Alternaria solani; Rate 10 ppm): 40%

Compound: COC(=O)NCc1cc(-c2ccn(-c3c(F)cc(OC(F)F)cc3F)n2)ccc1C [Compound 15, methyl N-[[5-[1-[4-(difluoromethoxy)-2,6-difluorophenyl]-1H-pyrazol-3-yl]-2-methylphenyl]methyl]carbamate]
Test F disease control rating (Alternaria solani; Rate 10 ppm): 0%

Compound: COC(=O)NCc1cc(-c2ccn(-c3c(F)cc(C(C)C)cc3F)n2)ccc1C [Compound 63, methyl N-[[5-[1-[2,6-difluoro-4-(1-methylethyl)phenyl]-1H-pyrazol-3-yl]-2-methylphenyl]methyl]carbamate]
Test F disease control rating (Alternaria solani; Rate 10 ppm): 85%
pest or weed control at 0.403 ppm (Phakopsora pachyrhizi [1]; Table B-2): 34%
pest or weed control at 0.652 ppm (Phakopsora pachyrhizi [1]; Table B-2): 68%
pest or weed control at 0.403 ppm (Phakopsora pachyrhizi [1]; Table C-2): 15%
pest or weed control at 0.652 ppm (Phakopsora pachyrhizi [1]; Table C-2): 46%

Compound: COC(=O)NCc1cc(-c2ccn(-c3c(F)cc(C(F)(F)F)cc3F)n2)ccc1C [Compound 64, methyl N-[[5-[1-[2,6-difluoro-4-(trifluoromethyl)phenyl]-1H-pyrazol-3-yl]-2-methylphenyl]methyl]carbamate]
Test F disease control rating (Alternaria solani; Rate 10 ppm): 0%

Compound: COC(=O)NCc1cc(-c2ncn(-c3c(F)cc([N+](=O)[O-])cc3F)n2)ccc1C [Compound 107]
Test F disease control rating (Alternaria solani; Rate 250 ppm): 0%

Compound: COC(=O)NCc1cc(-c2cnn(-c3c(F)cc([N+](=O)[O-])cc3F)n2)ccc1C [Compound 118, methyl N-[[5-[2-(2,6-difluoro-4-nitrophenyl)-2H-1,2,3-triazol-4-yl]-2-methylphenyl]methyl]carbamate]
Test F disease control rating (Alternaria solani; Rate 250 ppm): 0%

melting point: 104 to 108 °C
Compound: CO/N=C(\C)c1cc(F)c(-n2ncc(-c3ccc(C)c(CNC(=O)OC)c3)n2)c(F)c1 [Compound 142, methyl (E)-N-[[5-[2-[2,6-difluoro-4-[1-(methoxyimino)ethyl]phenyl]-2H-1,2,3-triazol-4-yl]-2-methylphenyl]methyl]carbamate]
pest or weed control at 10 ppm [2]: 86%
pest or weed control at 10 ppm (Phakopsora pachyrhizi [3]): 100%

melting point: 153 to 156 °C
Compound: COC(=O)NNc1cc(-c2ccn(-c3c(F)cc(Cl)cc3F)n2)ccc1C [Compound 153]
pest or weed control at 10 ppm [2]: 68%
pest or weed control at 10 ppm (Phakopsora pachyrhizi [3]): 91%

Compound: CC(C)(C)C(O)(CCc1ccc(Cl)cc1)Cn1cncn1 (centres unmarked) [Tebuconazole, tebuconazole]
pest or weed control at 486.921 ppm (Phakopsora pachyrhizi [1]; tebuconazole alone 486.921 ppm): 30%
pest or weed control at 841.166 ppm (Phakopsora pachyrhizi [1]; tebuconazole alone 841.166 ppm): 55%

Compound: CON=C(C(=O)OC)c1ccccc1CON=C(C)c1cccc(C(F)(F)F)c1 [Trifloxystrobin, trifloxystrobin]
pest or weed control at 20.511 ppm (Phakopsora pachyrhizi [1]; trifloxystrobin alone 20.511 ppm): 46%
pest or weed control at 35.31 ppm (Phakopsora pachyrhizi [1]; trifloxystrobin alone 35.310 ppm): 76%

Compound: COC(=O)NCc1cc(-c2cn(-c3c(F)cc(F)cc3Cl)nn2)ccc1C [compound 122]
Test A disease control rating (Zymoseptoria tritici): 71%
Test B disease control rating ([2]; Rate 250 ppm): 99%
Test C disease control rating [4]: 0%
Test D disease control rating (Phakopsora pachyrhizi [3]; Rate 250 ppm): 100%
Test E disease control rating (Botrytis cinerea): 0%
Test F disease control rating (Alternaria solani; Rate 250 ppm): 0%
